Common to all, as to test: growth of human tumour cells (NCI), 48 h
Assay [1] relates to MALME-3M melanoma.
The subject of assay [2] is HCT-116 colon.
The test system of assay [3] is CCRF-CEM leukemia.
The test system of assay [4] is A498 renal.
Assay [5] has as its system IGROV1 ovarian.
Assay [6] deals with MOLT-4 leukemia.
The subject of assay [7] is OVCAR-4 ovarian.
The subject of assay [8] is CAKI-1 renal.
The subject of assay [9] is NCI-H23 lung.
Assay [10] relates to HOP-92 NSCLC.

Molecules are shown by their SMILES.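 Each compound was tested at five concentrations against cells in 96-well plates for 48 hours. GI50 is the concentration that inhibits growth by half. TGI marks complete inhibition of growth.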

Drawing on PubChem BioAssay (NCI), this text covers TGI and GI50 for 13 molecules.

Take `Cc1[nH]c2ccccc2c1C1CC(=O)NC1=O` (stereo unspecified): the TGI in assay [1], in [2], in assay [3], in assay [4], in assay [5] and in assay [6] was above 100 µM in each case. The TGI in assay [7], in assay [8] and in assay [9] was above 100 µM throughout.
For `CN(C)Cc1cccc(CN(C)C)[c]1[Sn]([Br])([c]1ccccc1)[c]1ccccc1`, the GI50 in assay [1] is 12.6 µM; in assay [2] it was 4.31 µM; in assay [3], 5.45 µM; in [4], 21.7 µM; in assay [10], 2.15 µM; in assay [5], 0.436 µM. Moreover, the GI50 in assay [6] is 5.02 µM; in assay [8] it was 21.3 µM; in assay [9], 13.5 µM. The TGI was 27.4 µM in assay [1]; 17.3 µM in assay [2]; above 100 µM in [3]; 47.6 µM in assay [4]; 9.74 µM in assay [10]; 4.52 µM in assay [5]. Also, the figures for the TGI in assay [6], in assay [8] and in [9] were 20.5 µM, 47.1 µM and 46.3 µM, respectively.
As to `C[C@@H](NC1CCC[C@@H]1O)c1ccccc1` (stereo partly specified), the TGI in [1], in [2], in assay [3], in [10], in [5] and in assay [6] was above 100 µM in each case. For the same molecule, the TGI in assay [7] and in assay [8] was above 100 µM in each case.
In the case of `CCOC(=O)/C(C#N)=C\C=C1/C=CNC2=NCCN21`, the TGI in assay [1], in [2], in [3], in assay [5], in [6] and in [7] was above 100 µM throughout. Besides, the TGI in assay [8] and in assay [9] was above 100 µM each time.
Take `N=C1C(c2nc3ccccc3s2)=C(O)CN1c1ccc(Cl)cc1Cl`: the GI50 in assay [2] is 4.95 µM; in assay [3], 19.2 µM; in assay [4] it was 12.5 µM; in assay [10] it was 15.8 µM; in assay [5] it was 19.4 µM; in assay [6], 22.7 µM. Moreover, the GI50 was 18.3 µM in assay [7], 3.27 µM in assay [8] and 2.59 µM in [9]. The TGI in assay [2] was 25.6 µM; in assay [3] it was above 100 µM; in [4], 50.7 µM; in assay [10], 38.1 µM; in assay [5] it was 46.9 µM; in assay [6] it was above 100 µM. The TGI in [7] came out at 70.2 µM; in [8], 20.3 µM; in assay [9] it was 6.6 µM.
Turning to `N#Cc1ccc(-c2nc3ccc(Cl)cc3[nH]2)cc1`, the TGI in assay [3], in assay [10], in [5], in assay [6] and in assay [8] was above 100 µM in each case.
Consider `O=C(c1cc2c(C(F)(F)F)onc2c2ccccc12)C(F)(F)F`, for which the TGI is 1.03 µM in [2]; 21.6 µM in assay [3]; 34.9 µM in [4]; 4.99 µM in assay [10]; above 100 µM in [5]; above 56 µM in assay [6]. The results for the TGI in assay [7], in assay [8] and in assay [9] were above 100 µM, 20.9 µM and 4.25 µM, respectively.
On to `CCCC1C(=O)C(CC)Cc2c(OC)ccc(OC)c21` (stereo unspecified), for which the TGI in assay [1], in [3], in [10], in assay [5], in assay [6] and in [7] was above 100 µM each time. In assay [8], the TGI was above 100 µM.
`C[C@@H](Oc1cc(NS(=O)(=O)N2CCC2)nc(SCc2cccc(F)c2F)n1)[C@@H](O)CO`: the GI50 in assay [1], in assay [2], in assay [3], in [10], in assay [5] and in assay [6] was above 100 µM in each case. The GI50 in [7], in [8] and in [9] was above 100 µM in each case. The TGI in [1], in [2], in [3], in assay [10], in assay [5] and in assay [6] was above 100 µM in each case. The TGI in assay [7], in [8] and in [9] was above 100 µM throughout.
Consider `COC1CC2C=CC3C4OC2(/C(C)=C/C(C)C(C(C)O)OC1=O)C3C(O)C(C)C4OC(=O)c1ccc[nH]1` (stereo unspecified), for which the TGI was above 100 µM in assay [2]; above 100 µM in assay [3]; above 100 µM in assay [4]; above 100 µM in [10]; above 100 µM in [5]; 71.2 µM in [6]. Moreover, the TGI in assay [7], in assay [8] and in assay [9] was above 100 µM throughout.
For the molecule `Cc1ccc2c(N/N=C\c3ccco3)cc(C)nc2n1`, the GI50 is 2.95 µM in assay [2]; 2.23 µM in assay [3]; 11 µM in assay [4]; 3.41 µM in assay [5]; 2.67 µM in [6]; 2.99 µM in [7]. Moreover, the GI50 in assay [8] is 2.93 µM. Further, the TGI in assay [2] came out at 11 µM; in assay [3], 6.37 µM; in assay [4] it was 23.9 µM; in assay [5] it was 14.8 µM; in assay [6], 8.83 µM; in assay [7], 9.19 µM. The molecule further had a TGI in assay [8] of 12.8 µM.
Regarding `CC1Cc2c(N)nc(N3CCOCC3)nc2NC1=O` (stereo unspecified), the TGI in [1], in [2], in assay [3], in assay [5], in assay [6] and in assay [9] was above 100 µM throughout.
As to `CC(Oc1ccc(OCC2CCCCC2)cc1)C(=O)O` (stereo unspecified), the TGI in assay [1], in assay [2], in assay [3], in [5], in assay [6] and in assay [7] was above 100 µM each time. Besides, in assay [9], the TGI is above 100 µM.
